This is an account of results in patent publication US12240816B2, “Deuterated compounds and uses thereof” (Aldeyra Therapeutics, Inc., priority 2015, dated 2025).

Several values for one entry are separate records, joined by “and”; a condition that tells them apart may be missing. Equal entries are not always repeated. Where a SMILES comes first, the peptide text is derived from it. Where no end group is shown, it is not given here.

Data set [1] addresses T1, enzyme and uptake assay panel targets (Table 36) (Bos taurus, UniProt P11541+P23439).
T1 construct: other: PDE6 (non-selective); 1.0E−05M; nH; bovine retina
Kind of data set: biochemical. Type of data set: biochemical. The conditions noted are these: PDE6 (non-selective); reference compound.

The target of data set [2] is enzyme and uptake assay panel targets (Table 36) (Mus musculus, UniProt P29477). Kind of data set: biochemical. The conditions noted are these: inducible NOS; reference compound. Format: biochemical.
Chain of enzyme and uptake assay panel targets (Table 36) (Mus musculus, UniProt P29477) (P29477 whole entry): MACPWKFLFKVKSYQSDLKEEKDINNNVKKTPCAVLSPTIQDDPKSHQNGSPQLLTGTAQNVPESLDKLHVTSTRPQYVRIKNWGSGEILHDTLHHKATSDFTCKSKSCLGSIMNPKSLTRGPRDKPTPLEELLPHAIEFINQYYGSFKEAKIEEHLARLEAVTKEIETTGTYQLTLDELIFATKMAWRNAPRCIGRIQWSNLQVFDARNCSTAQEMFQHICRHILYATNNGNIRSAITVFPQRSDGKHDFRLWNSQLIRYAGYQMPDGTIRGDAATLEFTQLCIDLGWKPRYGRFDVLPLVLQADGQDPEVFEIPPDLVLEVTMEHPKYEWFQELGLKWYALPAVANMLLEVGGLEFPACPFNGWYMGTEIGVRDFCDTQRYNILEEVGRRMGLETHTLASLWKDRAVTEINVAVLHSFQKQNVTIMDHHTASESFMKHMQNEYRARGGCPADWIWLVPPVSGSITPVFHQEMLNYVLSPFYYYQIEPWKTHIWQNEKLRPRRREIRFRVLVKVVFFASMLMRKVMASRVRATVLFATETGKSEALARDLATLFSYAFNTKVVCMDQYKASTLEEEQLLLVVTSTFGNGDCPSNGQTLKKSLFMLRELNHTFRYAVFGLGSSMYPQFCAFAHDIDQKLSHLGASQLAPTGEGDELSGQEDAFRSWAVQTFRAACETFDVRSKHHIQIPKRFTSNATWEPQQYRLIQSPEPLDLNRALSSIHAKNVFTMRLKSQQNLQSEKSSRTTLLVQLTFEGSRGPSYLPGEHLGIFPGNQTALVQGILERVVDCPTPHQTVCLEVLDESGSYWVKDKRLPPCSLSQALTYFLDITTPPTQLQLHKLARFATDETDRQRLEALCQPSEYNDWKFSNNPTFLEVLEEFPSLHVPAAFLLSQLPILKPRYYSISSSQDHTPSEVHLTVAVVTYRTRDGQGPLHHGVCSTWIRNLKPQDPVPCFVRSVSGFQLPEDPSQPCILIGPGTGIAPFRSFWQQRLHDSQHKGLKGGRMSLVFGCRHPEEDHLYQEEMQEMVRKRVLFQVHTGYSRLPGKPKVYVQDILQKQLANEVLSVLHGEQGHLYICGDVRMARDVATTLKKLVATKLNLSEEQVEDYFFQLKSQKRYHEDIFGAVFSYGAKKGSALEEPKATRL
Data set [3] has as its target enzyme and uptake assay panel targets (Table 36) (Homo sapiens, UniProt P09917). Kind of data set: biochemical. Type of data set: biochemical.
Data set [4] has as its target enzyme and uptake assay panel targets (Table 36) (Homo sapiens, UniProt P18054). Kind of data set: biochemical. Type of data set: biochemical.
The target in data set [5] is enzyme and uptake assay panel targets (Table 36) (Homo sapiens, UniProt O76074). The data set is described as follows: biochemical. Type of data set: biochemical. The conditions noted are these: PDE5 (h) (non-selective); reference compound.
Data set [6] concerns the target T2, enzyme and uptake assay panel targets (Table 36) (Bos taurus, UniProt P80457).
T2 construct: other: xanthine oxidase/superoxide 02^−scavenging; nH; other: xanthine oxldase/superoxide 02 ^−scavenging; 1.0E−05M; ot; purified xanthine oxidase from bovine milk
The data set is described as follows: biochemical. Format: biochemical.

The target of data set [7] is enzyme and uptake assay panel targets (Table 36) (Homo sapiens, UniProt P06241). The data set is described as follows: biochemical. Format: biochemical. To be noted: Fyn kinase (h); reference compound.
In the next data set the target is 5-HT2B (h) (Homo sapiens, UniProt P41595). The data set is described as follows: 5-HT2B (h) (agonist radioligand) binding assay.
Chain of 5-HT2B (h) (P41595 whole entry): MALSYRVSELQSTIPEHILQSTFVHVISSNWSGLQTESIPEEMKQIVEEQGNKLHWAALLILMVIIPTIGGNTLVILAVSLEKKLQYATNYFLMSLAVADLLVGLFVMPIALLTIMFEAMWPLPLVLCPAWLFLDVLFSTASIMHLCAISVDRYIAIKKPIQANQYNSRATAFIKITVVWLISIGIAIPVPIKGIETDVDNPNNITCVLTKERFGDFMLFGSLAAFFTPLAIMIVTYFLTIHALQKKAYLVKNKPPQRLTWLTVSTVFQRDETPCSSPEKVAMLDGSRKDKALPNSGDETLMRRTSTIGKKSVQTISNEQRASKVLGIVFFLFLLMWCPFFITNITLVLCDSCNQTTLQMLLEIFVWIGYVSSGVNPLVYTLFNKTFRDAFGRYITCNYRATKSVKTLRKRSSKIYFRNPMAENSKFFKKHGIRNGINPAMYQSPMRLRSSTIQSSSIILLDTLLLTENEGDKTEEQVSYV
The target of data set [8] is enzyme and uptake assay panel targets (Table 36) (Homo sapiens, UniProt Q9BYF1). The data set is described as follows: biochemical. Format: biochemical. To be noted: ACE-2 (h); reference compound.
Chain of enzyme and uptake assay panel targets (Table 36) (Homo sapiens, UniProt Q9BYF1) (Q9BYF1 18-805): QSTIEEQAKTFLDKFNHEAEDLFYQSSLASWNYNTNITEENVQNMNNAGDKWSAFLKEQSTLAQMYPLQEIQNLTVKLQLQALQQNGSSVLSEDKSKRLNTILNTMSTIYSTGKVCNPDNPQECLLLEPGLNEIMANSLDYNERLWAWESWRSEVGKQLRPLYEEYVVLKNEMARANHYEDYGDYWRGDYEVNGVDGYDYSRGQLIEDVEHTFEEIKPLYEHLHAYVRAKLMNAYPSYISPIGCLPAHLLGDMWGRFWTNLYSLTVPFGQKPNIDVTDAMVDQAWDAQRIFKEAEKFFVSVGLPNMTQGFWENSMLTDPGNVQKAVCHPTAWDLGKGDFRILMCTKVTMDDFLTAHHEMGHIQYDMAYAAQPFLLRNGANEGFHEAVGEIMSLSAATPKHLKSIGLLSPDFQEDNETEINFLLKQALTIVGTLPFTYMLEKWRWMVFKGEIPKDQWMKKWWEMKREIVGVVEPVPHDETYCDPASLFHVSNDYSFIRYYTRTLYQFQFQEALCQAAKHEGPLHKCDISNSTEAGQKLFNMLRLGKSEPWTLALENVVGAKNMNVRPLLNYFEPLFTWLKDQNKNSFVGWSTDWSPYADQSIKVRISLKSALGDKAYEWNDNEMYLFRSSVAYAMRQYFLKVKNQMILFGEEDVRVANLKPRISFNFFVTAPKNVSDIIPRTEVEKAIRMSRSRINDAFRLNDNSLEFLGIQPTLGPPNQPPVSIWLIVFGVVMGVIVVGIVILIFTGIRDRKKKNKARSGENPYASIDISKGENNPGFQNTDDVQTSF
The target of another data set is T3, PR (h) (Homo sapiens, UniProt P06401).
T3 construct: T47D cells (cytosol)
T3 sequence (P06401 679-933): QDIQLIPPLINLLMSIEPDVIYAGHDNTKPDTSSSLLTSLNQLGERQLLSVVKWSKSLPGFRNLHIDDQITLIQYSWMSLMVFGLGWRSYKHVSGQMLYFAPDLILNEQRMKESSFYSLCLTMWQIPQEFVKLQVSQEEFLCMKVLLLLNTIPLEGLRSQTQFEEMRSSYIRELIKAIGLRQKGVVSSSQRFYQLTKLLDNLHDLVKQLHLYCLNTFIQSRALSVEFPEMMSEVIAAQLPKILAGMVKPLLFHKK
Kind of data set: PR (h) (agonist radioligand) binding assay.

Another data set addresses T4, MT3 (ML2) (Mesocricetus auratus, UniProt A0ABM2YAB8).
T4 sequence (A0ABM2YAB8 1-231): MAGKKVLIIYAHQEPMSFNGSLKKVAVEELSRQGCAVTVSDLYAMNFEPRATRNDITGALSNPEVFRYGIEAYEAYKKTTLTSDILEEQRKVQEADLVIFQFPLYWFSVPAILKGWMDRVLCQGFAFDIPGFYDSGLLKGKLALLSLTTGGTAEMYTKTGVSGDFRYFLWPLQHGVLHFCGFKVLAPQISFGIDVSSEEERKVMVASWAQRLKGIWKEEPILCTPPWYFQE
The data set is described as follows: MT3 (ML2) (agonist radioligand) binding assay. To be noted: MT3 (ML2) (agonist radioligand).

The target in data set [9] is enzyme and uptake assay panel targets (Table 36) (Homo sapiens, UniProt Q9UQM7). The data set is described as follows: biochemical. Type of data set: biochemical. The conditions noted are these: CaMK2α (h); reference compound.
For data set [10], the target named is enzyme and uptake assay panel targets (Table 36) (Homo sapiens, UniProt P03956). The data set is described as follows: biochemical. Type of data set: biochemical.
Chain of enzyme and uptake assay panel targets (Table 36) (Homo sapiens, UniProt P03956) (P03956 100-469): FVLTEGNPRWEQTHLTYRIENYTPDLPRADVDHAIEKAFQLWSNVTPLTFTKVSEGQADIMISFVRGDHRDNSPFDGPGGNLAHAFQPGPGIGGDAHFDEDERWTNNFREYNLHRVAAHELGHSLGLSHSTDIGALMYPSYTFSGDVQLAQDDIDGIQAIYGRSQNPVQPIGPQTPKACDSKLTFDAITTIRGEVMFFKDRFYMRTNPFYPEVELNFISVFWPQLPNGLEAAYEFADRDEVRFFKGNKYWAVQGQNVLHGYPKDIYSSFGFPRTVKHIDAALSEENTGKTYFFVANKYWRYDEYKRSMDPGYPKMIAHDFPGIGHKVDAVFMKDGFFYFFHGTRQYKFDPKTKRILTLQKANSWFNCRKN
Data set [11] has as its target enzyme and uptake assay panel targets (Table 36) (Homo sapiens, UniProt P08253). The data set is described as follows: biochemical. Format: biochemical.
Data set [12] addresses enzyme and uptake assay panel targets (Table 36) (Homo sapiens, UniProt P14780). Kind of data set: biochemical. Type of data set: biochemical.
Data set [13] has as its target enzyme and uptake assay panel targets (Table 36) (Homo sapiens, UniProt Q13370). The data set is described as follows: biochemical. Format: biochemical. The conditions noted are these: PDE3B (h); reference compound.
Data set [14] deals with enzyme and uptake assay panel targets (Table 36). The data set is described as follows: biochemical. Type of data set: biochemical. To be noted: COMT (catechol-O-methyl transferase); reference compound.
Data set [15] has as its target T5, enzyme and uptake assay panel targets (Table 36).
T5 construct: other: ATPase (Na+/K+); 1.0E−05M; nH; porcine cerebral cortex
The data set is described as follows: biochemical. Type of data set: biochemical. To be noted: ATPase (Na+/K+); reference compound.

Data set [16] has as its system rat hippocampal cultures. Kind of data set: cells. Format: cell-based. To be noted: 5 hours, DMSO.
The subject of data set [17] is rat hippocampal cultures. Kind of data set: Propidium iodide cell death assay, protection from hydrogen peroxide toxicity. To be noted: 5 hours, DMSO. Type of data set: cell-based.
The target in data set [18] is enzyme and uptake assay panel targets (Table 36) (Homo sapiens, UniProt P42574). Kind of data set: biochemical. Format: biochemical.
Chain of enzyme and uptake assay panel targets (Table 36) (Homo sapiens, UniProt P42574) (P42574 29-277): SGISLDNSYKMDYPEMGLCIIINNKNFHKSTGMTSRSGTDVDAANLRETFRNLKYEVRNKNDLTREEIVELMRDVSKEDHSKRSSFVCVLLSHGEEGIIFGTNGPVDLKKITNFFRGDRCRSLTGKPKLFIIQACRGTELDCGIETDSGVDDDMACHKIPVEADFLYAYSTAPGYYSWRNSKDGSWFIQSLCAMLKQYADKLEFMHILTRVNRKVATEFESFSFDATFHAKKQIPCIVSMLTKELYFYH
For data set [19], the target named is enzyme and uptake assay panel targets (Table 36) (Homo sapiens, UniProt P08473). Kind of data set: biochemical. Type of data set: biochemical. The conditions noted are these: Peptidase, Metalloproteinase, Neutral Endopeptidase; reference compound.
Chain of enzyme and uptake assay panel targets (Table 36) (Homo sapiens, UniProt P08473) (P08473 whole entry): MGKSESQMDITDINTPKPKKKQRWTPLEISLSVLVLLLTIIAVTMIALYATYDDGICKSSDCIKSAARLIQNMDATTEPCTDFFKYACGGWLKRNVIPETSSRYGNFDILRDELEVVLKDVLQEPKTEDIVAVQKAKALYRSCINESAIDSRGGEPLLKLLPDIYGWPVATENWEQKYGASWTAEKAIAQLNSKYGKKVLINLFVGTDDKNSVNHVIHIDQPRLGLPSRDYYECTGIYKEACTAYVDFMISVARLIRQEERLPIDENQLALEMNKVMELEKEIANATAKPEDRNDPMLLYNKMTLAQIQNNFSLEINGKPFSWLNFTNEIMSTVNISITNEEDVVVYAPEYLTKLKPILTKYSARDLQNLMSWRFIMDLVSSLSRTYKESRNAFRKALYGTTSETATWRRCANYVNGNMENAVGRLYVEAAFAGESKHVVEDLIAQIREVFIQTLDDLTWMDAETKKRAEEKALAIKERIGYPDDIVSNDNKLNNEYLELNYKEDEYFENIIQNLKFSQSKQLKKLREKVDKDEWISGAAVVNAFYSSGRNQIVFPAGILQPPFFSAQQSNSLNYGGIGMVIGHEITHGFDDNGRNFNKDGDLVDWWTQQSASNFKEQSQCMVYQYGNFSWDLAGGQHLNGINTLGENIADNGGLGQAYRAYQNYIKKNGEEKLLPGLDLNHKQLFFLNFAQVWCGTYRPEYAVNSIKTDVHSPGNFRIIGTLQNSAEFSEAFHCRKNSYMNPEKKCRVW
Data set [20] concerns the target enzyme and uptake assay panel targets (Table 36) (Homo sapiens, UniProt Q14790). Kind of data set: biochemical. Format: biochemical. To be noted: caspase-8 (h); reference compound.
In data set [21] the target is enzyme and uptake assay panel targets (Table 36) (Homo sapiens, UniProt O00408). Kind of data set: biochemical. Type of data set: biochemical. The conditions noted are these: PDE2A1 (h); reference compound.
Chain of enzyme and uptake assay panel targets (Table 36) (Homo sapiens, UniProt O00408) (O00408 whole entry): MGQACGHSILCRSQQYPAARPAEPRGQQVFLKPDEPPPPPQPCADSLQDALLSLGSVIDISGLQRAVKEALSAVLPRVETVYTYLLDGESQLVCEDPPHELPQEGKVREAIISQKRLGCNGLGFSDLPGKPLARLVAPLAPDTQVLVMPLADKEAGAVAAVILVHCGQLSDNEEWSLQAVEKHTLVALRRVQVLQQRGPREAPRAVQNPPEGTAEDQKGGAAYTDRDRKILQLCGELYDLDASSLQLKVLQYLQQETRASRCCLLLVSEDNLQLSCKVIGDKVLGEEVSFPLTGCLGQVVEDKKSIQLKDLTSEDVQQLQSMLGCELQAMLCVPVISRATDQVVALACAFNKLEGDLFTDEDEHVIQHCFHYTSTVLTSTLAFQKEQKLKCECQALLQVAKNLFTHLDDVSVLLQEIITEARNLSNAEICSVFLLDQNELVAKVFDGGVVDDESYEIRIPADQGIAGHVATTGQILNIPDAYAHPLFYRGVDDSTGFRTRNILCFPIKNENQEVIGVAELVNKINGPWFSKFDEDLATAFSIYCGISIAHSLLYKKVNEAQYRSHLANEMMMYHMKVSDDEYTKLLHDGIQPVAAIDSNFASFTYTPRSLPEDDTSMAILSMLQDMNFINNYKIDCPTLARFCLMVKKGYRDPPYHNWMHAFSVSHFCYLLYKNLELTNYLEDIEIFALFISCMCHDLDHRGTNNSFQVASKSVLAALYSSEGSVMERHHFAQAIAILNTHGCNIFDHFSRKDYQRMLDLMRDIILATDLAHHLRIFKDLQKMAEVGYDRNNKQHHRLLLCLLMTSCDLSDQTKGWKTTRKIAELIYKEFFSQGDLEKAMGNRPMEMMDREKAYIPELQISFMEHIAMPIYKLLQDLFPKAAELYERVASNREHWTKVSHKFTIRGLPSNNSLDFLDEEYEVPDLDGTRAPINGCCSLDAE
Where [22] appears, read: 0.1 μM + 10 μM hydrogen peroxide.
Setting [23] is: 10 μM + 10 μM hydrogen peroxide.
Where [24] appears, read: 100 μM + 10 μM hydrogen peroxide.
Setting [25] is: 300 μM + 10 μM hydrogen peroxide.

Chain of enzyme and uptake assay panel targets (Table 36) (Homo sapiens, UniProt Q14790) (Q14790 217-479): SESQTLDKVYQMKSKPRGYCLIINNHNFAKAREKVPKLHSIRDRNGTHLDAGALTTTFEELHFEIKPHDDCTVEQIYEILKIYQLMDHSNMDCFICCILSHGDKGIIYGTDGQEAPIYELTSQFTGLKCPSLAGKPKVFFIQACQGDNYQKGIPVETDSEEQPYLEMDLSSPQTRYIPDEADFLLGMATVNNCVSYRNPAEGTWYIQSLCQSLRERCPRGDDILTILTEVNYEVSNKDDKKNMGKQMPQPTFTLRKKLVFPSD

`CCCOc1ccccc1-c1nc2nn[nH]c2c(=O)[nH]1` [zaprinast]: the nH in data set [1] amounted to 1.0.

The IC50 is the concentration needed to halve the response being measured. As to `CC(=N)NCc1cccc(CN)c1` [Compound 1400W], in [2], the IC50 worked out at 0.04 µM and the nH is reported as 1.4.

In the case of `CC(Cc1ccc(O)c(O)c1)C(C)Cc1ccc(O)c(O)c1` (stereo not drawn) [NDGA], the nH is on record as 1.6 in data set [3] and 1.2 in data set [4].

Turning to `OCCN(CCO)c1nc(N2CCCCC2)c2nc(N(CCO)CCO)nc(N3CCCCC3)c2n1` [dipyridamole], in data set [5], the nH came out at 1.1.

With `Oc1ncnc2[nH]ncc12` [allopurinol], the nH in data set [6] came out at 1.3.

`Cc1ccc(-c2nn(C(C)(C)C)c3ncnc(N)c23)cc1` [PP1] returned a nH in [7] greater than 3.

On 5-HT2B (h), `COc1cc(CC(C)N)c(OC)cc1I` (racemic) [(±)DO1] came in with an IC50 of 0.0069 µM and a nH of 0.9.

For `CC(=O)NCC(=O)N[C@@H](CC(=O)O)C(=O)N[C@@H](Cc1ccc(O)cc1)C(=O)N[C@@H](CO)C(=O)N[C@@H](Cc1c[nH]cn1)C(=O)N[C@H]1CSSC[C@@H](C(=O)N[C@H](C(=O)N[C@@H](Cc2ccc(O)cc2)C(=O)N2CCC[C@H]2C(=O)N[C@@H](CC(=O)O)C(=O)N2CCC[C@H]2C(=O)N[C@@H](CCC(=O)O)C(=O)NCC(=O)NCC(=O)NCC(N)=O)[C@@H](C)O)NC(=O)[C@H](CCCCN)NC(=O)[C@H](Cc2c[nH]c3ccccc23)NC(=O)[C@H](Cc2c[nH]c3ccccc23)NC(=O)[C@@H]2CCCN2C(=O)[C@H](Cc2ccc(O)cc2)NC(=O)[C@H](Cc2ccc(O)cc2)NC(=O)[C@H](CCCNC(=N)N)NC(=O)[C@H](CC(C)C)NC(=O)[C@@H]2CCCN2C(=O)[C@H](CO)NC1=O` [Ac-GG-26-NH2], in data set [8], the “IC50” value amounted to 0.29 µM and the nH is 2.4.

Broadly, the Ki is the dissociation constant of the complex between target and ligand, obtained from inhibition or displacement. A higher Ki goes with lower affinity. In the case of `CCC(=O)[C@@]1(C)CC[C@H]2[C@@H]3CCC4=CC(=O)CCC4=C3CC[C@@]21C` [promegestone], on PR (h), the half-maximal inhibitory concentration (IC50) worked out at 0.00047 µM, the Ki amounted to 0.00038 µM and the nH was 1.6.

Consider `COc1ccc2[nH]cc(CCNC(C)=O)c2c1` [melatonin], for which, on MT3 (ML2), the IC50 was found to be 0.072 µM, the inhibition constant (Ki) was 0.071 µM and the nH is listed as 0.8.

With KKALRRQEAVDAL [AIP], in data set [9], the “IC50” value worked out at 0.26 µM.

Take `CNC(=O)[C@H](Cc1c[nH]c2ccccc12)NC(=O)[C@@H](CC(=O)NO)CC(C)C` [GM6001]: the figures for the nH in data set [10], in data set [11] and in data set [12] were 1.3, 1.3 and 0.9, respectively.

In data set [13], `Cc1[nH]c(=O)c(C#N)cc1-c1ccncc1` [milrinone] had a nH of 0.9.

In data set [14], `O=C(c1cc(O)c(O)c([N+](=O)[O-])c1)c1ccccc1F` [Ro 41-0960] gave an IC50 of 0.03 µM.

As to `C[C@@H]1O[C@@H](O[C@H]2C[C@@H](O)[C@]3(CO)[C@H]4[C@H](O)C[C@]5(C)[C@@H](C6=CC(=O)OC6)CC[C@]5(O)[C@@H]4CC[C@]3(O)C2)[C@H](O)[C@H](O)[C@H]1O` [ouabain], in data set [15], the IC50 came to 1 µM.

Take `CC(C)(O)c1nc2ncccc2cc1N` [ALD5]: the “Neuronal viability (CFDA), % of Control” value in the data set on rat hippocampal cultures [16] (setting [22]) turned out to be 69 ± 1%; in the data set with rat hippocampal cultures [16] (1 μM + 10 μM hydrogen peroxide) it was 66 ± 3%; in the data set on rat hippocampal cultures [16] (setting [23]), 65 ± 3%; with rat hippocampal cultures [16] (setting [24]), 66 ± 4%; in the data set on rat hippocampal cultures [16] (setting [25]), 74 ± 1%. In addition, the “Neuronal viability (CFDA), Mean” value is 38942 in the data set with rat hippocampal cultures [16] (setting [22]); 37447 with rat hippocampal cultures [16] (1 μM + 10 μM hydrogen peroxide); 36940 in the data set with rat hippocampal cultures [16] (setting [23]); 37605 in the data set on rat hippocampal cultures [16] (setting [24]); 42249 in the data set with rat hippocampal cultures [16] (setting [25]). Also, the “Cell death (Propidium Iodide), % of Control” value with rat hippocampal cultures [17] (setting [22]) was 202 ± 15%; in the data set with rat hippocampal cultures [17] (1 μM + 10 μM hydrogen peroxide), 196 ± 1%; in the data set with rat hippocampal cultures [17] (setting [23]), 191 ± 11%; with rat hippocampal cultures [17] (setting [24]), 181 ± 7%; in the data set with rat hippocampal cultures [17] (setting [25]), 205 ± 8%. For the same compound, the “Cell death (Propidium Iodide), Mean” value in the data set with rat hippocampal cultures [17] (setting [22]) came to 301; in the data set on rat hippocampal cultures [17] (1 μM + 10 μM hydrogen peroxide), 292; with rat hippocampal cultures [17] (setting [23]), 285; with rat hippocampal cultures [17] (setting [24]) it was 269; in the data set on rat hippocampal cultures [17] (setting [25]), 305. Besides, the “Cell death (Propidium Iodide), individual values” with rat hippocampal cultures [17] (setting [22]) is 225 and 325 and 294 (2×) and 366; in the data set on rat hippocampal cultures [17] (1 μM + 10 μM hydrogen peroxide), 285 and 294 (4×); with rat hippocampal cultures [17] (setting [23]), 294 (3×) and 320 and 225; in the data set on rat hippocampal cultures [17] (setting [24]), 250 (2×) and 294 (2×) and 255; with rat hippocampal cultures [17] (setting [25]), 294 (3×) and 293 and 352.

`CC(=O)N[C@@H](CC(=O)O)C(=O)N[C@@H](CCC(=O)O)C(=O)N[C@H](C(=O)N[C@H](C=O)CC(=O)O)C(C)C` [Ac-DEVD-CHO] gave a nH in data set [18] of 1.1.

For `CC(C)C[C@H](NP(=O)(O)O[C@@H]1O[C@@H](C)[C@H](O)[C@@H](O)[C@H]1O)C(=O)N[C@@H](Cc1c[nH]c2ccccc12)C(=O)O` [Phosphoramidon], in data set [19], the half-maximal inhibitory concentration (IC50) is 0.016 µM and the nH amounted to 0.9.

On to `CC[C@H](C)[C@H](NC(C)=O)C(=O)N[C@@H](CCC(=O)O)C(=O)N[C@H](C(=O)N[C@H](C=O)CC(=O)O)[C@@H](C)O` [Ac-IETD-CHO] (Ac-IETD-aldehyde), for which, in [20], the “IC50” value was 0.028 µM and the nH was found to be 0.8.

In data set [21], `CCCCCC[C@@H]([C@@H](C)O)n1cnc2c(N)ncnc21` (racemic) [EHNA] came in with an IC50 of 1.1 µM and a nH of 0.8.
